According to patent US20110197288A1, “Transgenic animal for screening of compounds that modulate cell proliferation, and its use in the pharmaceutical field” (priority 2009, published 2011):

Legend:
[1] = system: cell proliferation (luciferase reporter under CYCB2 promoter) in tissues; experiment: luciferase activity in tissue protein extracts of treated CYCB2-luciferase transgenic mice; assay type: in vivo, mouse; conditions: 150 ug/kg 5FU, 2 and 5 days, all tissues analysed, versus saline vehicle; FIG. 7
Method: For this purpose, organs were homogenized in lysis buffer and lysates were subjected to three cycles of freezing and thawing. Proteins were separated from DNA and lysosomes by centrifugation (13000×g for 30 min). After determining the protein concentration of the extract, the biochemical assay of luciferase activity was carried out by measuring luminescence emission with a luminometer. The relative luminescence units (RLU) determined during a measurement of 10 seconds were then expressed on the Y axis as RLU values per microgram protein. The results according to the graph in FIG. 2C indicate that, in the adult animal, light emission is restricted to organs characterized by basal homeostatic proliferation such as spleen, bone marrow, femur and sternum, or sites of active tissue remodeling in the mouse, such as joints of the feet, jaw, etc.
(§1) As an example of application for development of anti-proliferative drugs, heterozygous individuals of the transgenic mouse line according to the invention were treated as follows: a first group was treated with 150 ug/kg 5-fluorouracil (5FU), a well-known chemotherapeutic agent, while another group was treated with saline as control (vehicle) for 2 and 5 days.
Mice were sacrificed and luciferase activity was evaluated in tissue protein extracts, as reported in the graph in FIG. 7.

bone marrow cells [2] = experiment: cell cycle phase analysis of bone marrow cells by FACS with propidium iodide staining; assay type: in vivo, mouse; conditions: bone marrow cells from 5FU treated mice, vehicle 11.2%, FIG. 8B
Method: as §1
Cells were fixed with methanol acetone 4:1, stained with 0.1 mg/ml propidium iodide, a DNA fluorescent marker, and then subjected to FACS analysis.

bone marrow cells [3] = experiment: luciferase expression (RLU per microgram protein) in bone marrow cells of treated transgenic mice; assay type: in vivo, mouse; conditions: 5 day 5FU treatment, FIG. 8A
Method: To assess the expression of luciferase in proliferating progenitor cells, bone marrow cells, that are highly enriched in hematopoietic precursors, were collected by flushing the femurs with culture medium and enzyme activity was analyzed in protein extracts (Ciana et al 2001), as shown in the graph in FIG. 3A.
as §1

[4] = system: skin of transgenic mouse (luciferase reporter under CYCB2 promoter); experiment: skin light emission imaging after cutaneous application of carcinogen to transgenic mouse; conditions: 0.24% DMBA solution in acetone on skin, day 7 relative to day 0; FIG. 9
Method: To evaluate this application, the skin of a transgenic mouse according to the invention was treated with DMBA, a carcinogen, and the stimulation of light emission was measured for the carcinogen-treated side compared to the side treated with vehicle alone.
In particular, a 0.24% DMBA solution in acetone was applied to the skin of transgenic individuals according to the invention. One week later (day 7 relative to day 0) the amount of luciferase produced was detected by measuring the light emission produced by the skin of the animals.

In the case of `O=c1[nH]cc(F)c(=O)[nH]1` [5FU, 5-fluorouracil], the “luciferase activity in tissue protein extracts” value [1] was “Reduced luciferase activity, until levels that were undetectable”, the S phase cells (bone marrow cells [2]) was 1.97% and the “luciferase expression in bone marrow cells” value (bone marrow cells [3]) was “reduced luciferase expression”.
In the case of `Cc1c2ccccc2c(C)c2c1ccc1ccccc12` [DMBA, 7,12-dimethylbenz(a)anthracene], the “induction of luciferase activity (light emission) versus region treated with vehicle alone” value [4] was 12.5 fold.
